The record followed here is ChEMBL document CHEMBL1149193, “Selective optimization of side activities: another way for drug discovery” (J Med Chem, 2004).

One assay has as its target T1, D(4) dopamine receptor (Homo sapiens, UniProt P21917).
T1 sequence (P21917 whole entry): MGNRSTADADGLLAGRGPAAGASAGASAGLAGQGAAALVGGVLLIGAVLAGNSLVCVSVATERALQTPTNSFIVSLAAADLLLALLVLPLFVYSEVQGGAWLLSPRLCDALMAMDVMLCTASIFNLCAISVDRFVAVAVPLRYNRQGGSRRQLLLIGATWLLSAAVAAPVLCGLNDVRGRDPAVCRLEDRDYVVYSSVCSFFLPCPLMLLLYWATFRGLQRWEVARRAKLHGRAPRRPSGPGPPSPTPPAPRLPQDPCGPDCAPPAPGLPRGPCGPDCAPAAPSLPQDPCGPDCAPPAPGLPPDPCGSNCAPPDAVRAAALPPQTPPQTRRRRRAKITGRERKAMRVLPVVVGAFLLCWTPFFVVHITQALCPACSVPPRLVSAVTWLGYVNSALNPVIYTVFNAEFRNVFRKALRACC

For the next assay, the species on record is Mus musculus. Kind of assay: animal or person. Format: functional. The settings on record: sc.
A further assay addresses D(3) dopamine receptor (Homo sapiens, UniProt P35462).
The target in assay [1] is T2, Alpha-1A adrenergic receptor (Homo sapiens, UniProt P35348).
T2 sequence (P35348 whole entry): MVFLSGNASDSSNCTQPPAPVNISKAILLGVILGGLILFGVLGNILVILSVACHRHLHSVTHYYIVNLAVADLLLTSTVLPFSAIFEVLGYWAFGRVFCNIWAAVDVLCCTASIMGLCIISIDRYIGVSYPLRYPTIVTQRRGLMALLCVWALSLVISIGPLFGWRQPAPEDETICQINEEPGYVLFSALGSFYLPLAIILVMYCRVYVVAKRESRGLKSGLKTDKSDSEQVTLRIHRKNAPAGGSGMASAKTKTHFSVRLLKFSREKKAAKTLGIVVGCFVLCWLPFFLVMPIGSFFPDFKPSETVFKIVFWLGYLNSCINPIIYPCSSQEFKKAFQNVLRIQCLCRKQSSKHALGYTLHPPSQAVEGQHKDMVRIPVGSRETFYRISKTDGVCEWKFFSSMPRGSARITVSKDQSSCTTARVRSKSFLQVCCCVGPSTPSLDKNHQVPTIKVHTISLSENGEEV
Description: Binding affinity towards recombinant human alpha-1A adrenergic receptor

Chain of D(3) dopamine receptor (P35462 whole entry): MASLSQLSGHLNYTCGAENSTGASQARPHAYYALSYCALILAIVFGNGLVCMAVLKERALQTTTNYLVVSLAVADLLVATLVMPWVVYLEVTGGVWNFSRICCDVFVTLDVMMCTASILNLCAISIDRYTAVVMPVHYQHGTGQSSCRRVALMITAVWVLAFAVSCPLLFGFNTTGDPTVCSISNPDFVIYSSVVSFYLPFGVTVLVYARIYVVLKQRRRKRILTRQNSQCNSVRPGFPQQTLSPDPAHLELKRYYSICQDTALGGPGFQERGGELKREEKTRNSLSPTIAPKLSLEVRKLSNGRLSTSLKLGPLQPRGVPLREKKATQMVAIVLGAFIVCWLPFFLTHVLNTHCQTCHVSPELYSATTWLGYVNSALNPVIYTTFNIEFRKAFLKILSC
Description for D(3) dopamine receptor: Binding affinity against Dopamine receptor D3
Description for D(4) dopamine receptor: Binding affinity towards human Dopamine receptor D4
Description for Mus musculus: In vivo inhibitory activity for apomorphine induced climbing in mice, sc

`COc1cc(NC(=O)C2CC2)c(Cl)cc1C(=O)NC1CCN(Cc2ccccc2)C1` (centres undefined): the figures for the Ki at D(4) dopamine receptor and at D(3) dopamine receptor were 2.1 nM and 21 nM, respectively. The molecule further returned a median effective dose (ED50) in the assay filed under Mus musculus of 0.32 mg/kg.

The molecule `COCC1=C(C(=O)OC)[C@H](c2ccc(F)c(F)c2)C(C(=O)NCCCN2CCC(c3ccccn3)CC2)C(=O)N1` (some centres undefined) came in with an inhibition constant (Ki) in assay [1] of 0.36 nM.
